Measurements published in US20240360146A1, “BRUTON'S TYROSINE KINASE AND MUTANT DEGRADER, COMPOSITION AND APPLICATION THEREOF” (HANGZHOU HEALZEN THERAPEUTICS CO., LTD., priority 2021, published 2024).

Columns and labels:
[1] = Mouse absorption test (pharmacokinetic properties in mice); type: in vivo; settings: intragastric; for DNAUC: DNAUC = AUC/Dose; for Cmax: mouse, plasma, po
Protocol: […] The blood collection time points for intragastric administration were 0.25, 0.5, 1, 2, 4, 6, 8, and 24 h. 0.5 mL of blood was taken with a capillary tube from the orbit, and placed in an EP tube containing EDTA anticoagulant. The EP tube was shaken gently for mixing uniformly, and centrifuged at 3500 rpm and 4° C. for 10 min. The supernatant, i.e., plasma, was taken. Analysis was performed using LC-MS/MS.

OCI-LY10 cells = assay: Inhibitory activity on OCI-LY10 cell proliferation (MTS); type: cell-based; settings: Homo sapiens, 72 h
In short: (§1)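 Cells seeded at 10000/well, treated with compounds from 1000 nM (4-fold, 8 points) for 72 h (OCI-LY10) or 168 h (Mino) at 37° C. MTS added for 2 h, stopped with SDS, absorbance read at 490 and 650 nm; IC50 from dose-response fit.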

[2] = Stability of compounds in human liver microsome; type: in vitro ADME; settings: human liver microsomes, NADPH, 37° C., sampling 0-120 min; read-out: Human liver microsome T1/2
Protocol: Compound to be tested: the compound to be tested (1 mg) was dissolved in DMSO (10 mL) to formulate to 0.1 mg/mL.
Internal standard compound: the internal standard compound (1 mg) was dissolved in DMSO (10 mL), 10 μL was taken and diluted to 10 mL to formulate to 100 ng/mL.
NADPH solution: NADPH (2.08 mg) was dissolved in PBS (50 μL) buffer to formulate to 50 mM.
Under the condition of ice bath, 1 mg of human liver microparticles was add to PBS (1 mL) buffer, then NADPH (20 μL) was added, and incubated at 37° C. for 5 min. 10 μL of the compound to be tested was added, and then samples were taken at 0, 15, 30, 60 and 120 min respectively. 10 μL of the solution was taken with a pipette each time and added to 490 μL of the solution containing the internal standard compound. The resulting solution was vortexed and then placed on ice, and then sampling at another time point continues. All samples were centrifuged at 10,000 rpm for 10 min, and the supernatant was taken for LC/MS testing. The metabolism of the compound in liver microsomes was calculated based on the peak area.

Mino cells = assay: Inhibitory activity on Mino cell proliferation (MTS); type: cell-based; settings: Homo sapiens, 168 h incubation
In short: as §1

BTK = molecular target: T1, BTK (Homo sapiens, UniProt Q06187); assay: BTK degradation activity test in Mino cells; type: cell-based; settings: 16 h incubation, Western blot or Elisa
T1 construct: endogenous in cells; host or cells: Mino cells
In short: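 DC50 derived by curve fitting of BTK degradation rates versus untreated control across compound concentrations. Mino cells were exposed for 16 h; BTK levels in lysates, normalised via BCA protein, measured by Western blot or ELISA.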

T1 sequence (Q06187 whole entry): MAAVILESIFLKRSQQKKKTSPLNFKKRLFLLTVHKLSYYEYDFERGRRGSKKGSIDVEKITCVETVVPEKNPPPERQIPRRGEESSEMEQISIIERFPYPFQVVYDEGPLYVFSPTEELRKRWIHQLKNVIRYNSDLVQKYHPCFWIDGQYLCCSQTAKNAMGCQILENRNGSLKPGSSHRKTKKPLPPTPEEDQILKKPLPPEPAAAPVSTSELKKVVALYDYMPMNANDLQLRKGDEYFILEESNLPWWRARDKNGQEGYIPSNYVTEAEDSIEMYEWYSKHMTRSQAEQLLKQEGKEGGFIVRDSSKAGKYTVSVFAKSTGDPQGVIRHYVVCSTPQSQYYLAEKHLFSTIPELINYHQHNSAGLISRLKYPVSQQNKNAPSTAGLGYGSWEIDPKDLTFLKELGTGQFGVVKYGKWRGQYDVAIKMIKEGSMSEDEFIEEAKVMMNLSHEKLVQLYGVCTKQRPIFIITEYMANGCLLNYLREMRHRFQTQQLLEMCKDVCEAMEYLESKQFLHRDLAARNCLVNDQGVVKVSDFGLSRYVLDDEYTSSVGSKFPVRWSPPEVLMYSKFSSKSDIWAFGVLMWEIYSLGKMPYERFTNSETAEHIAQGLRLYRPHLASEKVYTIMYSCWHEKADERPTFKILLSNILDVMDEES

SMILES | DNAUC ([1]; 30 mg/kg) | Cmax ([1]; 30 mg/kg) | IC50 (OCI-LY10 cells) | half-life at 0.97 µg/mL [2] | IC50 (Mino cells) | DC50 (BTK) | Cmax ([1]; 30 mg/kg, class symbols) | DNAUC ([1]; 100 mg/kg) | Cmax ([1]; 100 mg/kg)
CN1CCN([C@@H]2CCCN(c3nnc(C(N)=O)c(Nc4ccc(N5CCN(CC6CCN(c7ccc(C(=O)N[C@H]8CCC(=O)NC8=O)nc7)C6)CC5)c(F)c4)n3)C2)C1=O (stereo partly drawn) [Compound 145, 5-((4-(4-((1-(6-(((S)-2,6-dioxopiperidin-3-yl)carbamoyl)pyridin-3-yl)pyrrolidin-3-yl)methyl)piperazin-1-yl)-3-fluorophenyl)amino)-3-((R)-3-(3-methyl-2-oxoimidazolin-1-yl)piperidin-1-yl)-1,2,4-triazin-6-carboxamide] | 2704 ng/ml*h/mpk | 13800 ng/mL | 0.56 nM | > 30 min | 4.15 nM | < 1 nM | – | – | –
NC(=O)c1nnc(N2CCC[C@@H](N3C(=O)CCC3=O)C2)nc1Nc1ccc(C2CCN(CC3CCN(c4ccc5c(c4)C(=O)N(C4CCC(=O)NC4=O)C5=O)CC3)CC2)cc1 (stereo partly drawn) [Compound 135, 5-((4-(1-((1-(2-(2,6-dioxopiperidin-3-yl)-1,3-dioxoisoindolin-5-yl)piperidin-4-yl)methyl)piperidin-4-yl)phenyl)amino)-3-((R)-3-(2,5-dioxopyrrolidin-1-yl)piperidin-1-yl)-1,2,4-triazin-6-carboxamide] | – | – | 0.11 nM | 25 min | 1.36 nM | < 1 nM | – | – | –
CN1CCN([C@@H]2CCCN(c3nnc(C(N)=O)c(Nc4ccc(N5CCN(CC6CCN(c7ccc(F)c(N8CCC(=O)NC8=O)c7)C6)CC5)c(F)c4)n3)C2)C1=O (stereo partly drawn) [Compound 256, 5-((4-(4-((1-(3-(2,4-dioxotetrahydropyrimidin-1(2H)-yl)-4-fluorophenyl)pyrrolidin-3-yl)methyl)piperazin-1-yl)-3-fluorophenyl)amino)-3-((R)-3-(3-methyl-2-oxoimidazolidin-1-yl)piperidin-1-yl)-1,2,4-triazin-6-carboxamide] | – | – | 1.6 nM | > 30 min | 1.87 nM | < 1 nM | – | – | –
CN1CCN([C@@H]2CCCN(c3nnc(C(N)=O)c(Nc4ccc(N5CCN(CC6CCN(c7ccc(C(=O)N[C@H]8CCC(=O)NC8=O)nc7)CC6)CC5)c(F)c4)n3)C2)C1=O [Compound 171, 5-((4-(4-((1-(6-(((S)-2,6-dioxopiperidin-3-yl)carbamoyl)pyridin-3-yl)piperidin-4-yl)methyl)piperazin-1-yl)-3-fluorophenyl)amino)-3-((R)-3-(3-methyl-2-oxoimidazolidin-1-yl)piperidin-1-yl)-1,2,4-triazin-6-carboxamide] | – | – | 2.65 nM | > 30 min | 3.43 nM | < 1 nM | – | – | –
NC(=O)c1nnc(N2CC3CC(N4C(=O)c5ccccc5C4=O)C2C3)nc1Nc1ccc(C2CCN(CC3CCN(c4ccc5c(c4)C(=O)N(C4CCC(=O)NC4=O)C5=O)C3)CC2)cc1 (stereo not drawn) [Compound 144, 3-(6-(1,3-dioxoisoindolin-2-yl)-2-azabicyclo[2.2.1]heptan-2-yl)-5-((4-(1-((1-(2-(2,6-dioxopiperidin-3-yl)-1,3-dioxoisoindolin-5-yl)pyrrolidin-3-yl)methyl)piperidin-4-yl)phenyl)amino)-1,2,4-triazin-6-carboxamide] | – | – | 3.49 nM | 146 min | 3.49 nM | < 1 nM | – | – | –
CN1CCN([C@@H]2CCCN(c3nnc(C(N)=O)c(Nc4ccc(N5CCN(CC6CCN(c7ccc(C(=O)NC8CCC(=O)NC8=O)c(F)c7)CC6)CC5)c(F)c4)n3)C2)C1=O (stereo partly drawn) [Compound 254, 5-((4-(4-((1-(4-((2,6-dioxopiperidin-3-yl)carbamoyl)-3-fluorophenyl)piperidin-4-yl)methyl)piperazin-1-yl)-3-fluorophenyl)amino)-3-((R)-3-(3-methyl-2-oxoimidazolidin-1-yl)piperidin-1-yl)-1,2,4-triazin-6-carboxamide] | 2536 ng/ml*h/mpk | – | 0.89 nM | > 30 min | – | < 1 nM | > 6000 ng/mL | – | –
COc1ccc(N2CCC(CN3CCN(c4ccc(Nc5nc(N6CCC[C@@H](N7CCN(C)C7=O)C6)nnc5C(N)=O)cc4F)CC3)C2)cc1N1CCC(=O)NC1=O (stereo partly drawn) [Compound 258, 5-((4-(4-((1-(3-(2,4-dioxotetrahydropyrimidin-1(2H)-yl)-4-methoxyphenyl)pyrrolidin-3-yl)methyl)piperazin-1-yl)-3-fluorophenyl)amino)-3-((R)-3-(3-methyl-2-oxoimidazolidin-1-yl)piperidin-1-yl)-1,2,4-triazin-6-carboxamide] | – | – | 0.96 nM | > 30 min | 5.31 nM | < 1 nM | – | – | –
CN1CCN([C@@H]2CCCN(c3cnc(C(N)=O)c(Nc4ccc(C5CCN(CC6CCN(c7ccc8c(c7)C(=O)N(C7CCC(=O)NC7=O)C8=O)CC6)CC5)cc4)n3)C2)C1=O (stereo partly drawn) [Compound b] | – | – | – | 5.18 min | – | – | – | 631 ng/ml*h/mpk | 4030 ng/mL
NC(=O)c1nnc(N2CCC[C@@H](N3CCN(CC(F)(F)F)C3=O)C2)nc1Nc1ccc(C2CCN(CC3CCN(c4ccc5c(c4)C(=O)N(C4CCC(=O)NC4=O)C5=O)C3)CC2)cc1 (stereo partly drawn) [Compound 140, 5-((4-(1-((1-(2-(2,6-dioxopiperidin-3-yl)-1,3-dioxoisoindolin-5-yl)pyrrolidin-3-yl)methyl)piperidin-4-yl)phenyl)amino)-3-((R)-3-(2-oxo-3-(2,2,2-trifluoroethyl)imidazolin-1-yl)piperidin-1-yl)-1,2,4-triazin-6-carboxamide] | – | – | 0.47 nM | 26.3 min | 3.46 nM | < 1 nM | – | – | –
CN1CCN([C@@H]2CCCN(c3nnc(C(N)=O)c(Nc4ccc(N5CCN(CC6CCN(c7ccc(N8CCC(=O)NC8=O)cc7)C6)CC5)c(F)c4)n3)C2)C1=O (stereo partly drawn) [Compound 147, 5-((4-(4-((1-(4-(2,4-dioxotetrahydropyrimidin-1(2H)-yl)phenyl)pyrrolidin-3-yl)methyl)piperazin-1-yl)-3-fluorophenyl)amino)-3-((R)-3-(3-methyl-2-oxoimidazolin-1-yl)piperidin-1-yl)-1,2,4-triazin-6-carboxamide] | – | – | 1.48 nM | > 30 min | 0.54 nM | < 1 nM | – | – | –
NC(=O)c1nnc(N2CCC[C@@H](N3C(=O)CCC3=O)C2)nc1Nc1ccc(C2CCN(CC3CCN(c4ccc5c(c4)C(=O)N(C4CCC(=O)NC4=O)C5=O)C3)CC2)cc1 (stereo partly drawn) [Compound 136, 5-((4-(1-((1-(2-(2,6-dioxopiperidin-3-yl)-1,3-dioxoisoindolin-5-yl)pyrrolidin-3-yl)methyl)piperidin-4-yl)phenyl)amino)-3-((R)-3-(2,5-dioxopyrrolidin-1-yl)piperidin-1-yl)-1,2,4-triazin-6-carboxamide] | – | – | 0.79 nM | 24 min | 1.61 nM | < 1 nM | – | – | –
COc1ccc(C(=O)N2CCC(CN3CCN(c4ccc(Nc5nc(N6CCC[C@@H](N7CCN(C)C7=O)C6)nnc5C(N)=O)cc4F)CC3)C2)cc1N1CCC(=O)NC1=O (stereo partly drawn) [Compound 149, 5-((4-(4-((1-(3-(2,4-dioxotetrahydropyrimidin-1(2H)-yl)-4-methoxybenzoyl)pyrrolidin-3-yl)methyl)piperazin-1-yl)-3-fluorophenyl)amino)-3-((R)-3-(3-methyl-2-oxoimidazolin-1-yl)piperidin-1-yl)-1,2,4-triazin-6-carboxamide] | – | – | 2.6 nM | > 30 min | 8.89 nM | < 1 nM | – | – | –
CN1C(=O)N([C@@H]2CCCN(c3nnc(C(N)=O)c(Nc4ccc(C5CCN(CC6CCN(c7ccc8c(c7)C(=O)N(C7CCC(=O)NC7=O)C8=O)C6)CC5)cc4)n3)C2)C(=O)C12CC2 (stereo partly drawn) [Compound 137, 5-((4-(1-((1-(2-(2,6-dioxopiperidin-3-yl)-1,3-dioxoisoindolin-5-yl)pyrrolidin-3-yl)methyl)piperidin-4-yl)phenyl)amino)-3-((R)-3-(4-methyl-5,7-dioxo-4,6-diazaspiro[2.4]heptan-6-yl)piperidin-1-yl)-1,2,4-triazin-6-carboxamide] | – | – | 0.25 nM | 20 min | 3.92 nM | < 1 nM | – | – | –
